The source of these data is patent publication US20230234991A1, “SELF-ASSEMBLED PEPTIDE NANORODS AND USES THEREOF” (TRANSFERT PLUS, SOCIÉTÉ EN COMMANDITE, priority 2020, published 2023).

One assay deals with T1, TLR2 (Mus musculus, UniProt Q9QUN7).
T1 construct: host or cells: HEK293 (HEK-Blue mTLR2)
Nature of the assay: TLR-2 stimulation, SEAP activity in HEK-Blue mTLR2 cells. In kind it is cell-based. As for the experimental part: TLR-2 stimulation. HEK293 cells stably co-transfected with mTLR2 and SEAP (HEK-Blue mTLR2 cells, InvivoGen) were cultivated in Dulbecco's Modified Eagle's Medium supplemented with 4.5 g/I glucose, 10% (v/v) fetal bovine serum, 100 U/ml penicillin, […], […], 2 mM L-glutamine. At 50-80% confluency, cells were seeded in Hek-Blue detection medium (InvivoGen) at a density of 50,000 cells/well in a 96-well plate containing NRs and controls. After 16 h incubation at 37° C. in 5% CO2, absorbance was monitored at 630 nm.

A further assay has as its system M2e. On the set-up: species or system BALB/c mice. The following applies: mouse, in vivo, sc.
Assay [1] concerns influenza virus A/PuertoRico/8/34. Further details: species or system BALB/c mice. The following applies: mouse, in vivo.

“Also recorded” adds a separate entry of the source.

T1 sequence (Q9QUN7 25-784): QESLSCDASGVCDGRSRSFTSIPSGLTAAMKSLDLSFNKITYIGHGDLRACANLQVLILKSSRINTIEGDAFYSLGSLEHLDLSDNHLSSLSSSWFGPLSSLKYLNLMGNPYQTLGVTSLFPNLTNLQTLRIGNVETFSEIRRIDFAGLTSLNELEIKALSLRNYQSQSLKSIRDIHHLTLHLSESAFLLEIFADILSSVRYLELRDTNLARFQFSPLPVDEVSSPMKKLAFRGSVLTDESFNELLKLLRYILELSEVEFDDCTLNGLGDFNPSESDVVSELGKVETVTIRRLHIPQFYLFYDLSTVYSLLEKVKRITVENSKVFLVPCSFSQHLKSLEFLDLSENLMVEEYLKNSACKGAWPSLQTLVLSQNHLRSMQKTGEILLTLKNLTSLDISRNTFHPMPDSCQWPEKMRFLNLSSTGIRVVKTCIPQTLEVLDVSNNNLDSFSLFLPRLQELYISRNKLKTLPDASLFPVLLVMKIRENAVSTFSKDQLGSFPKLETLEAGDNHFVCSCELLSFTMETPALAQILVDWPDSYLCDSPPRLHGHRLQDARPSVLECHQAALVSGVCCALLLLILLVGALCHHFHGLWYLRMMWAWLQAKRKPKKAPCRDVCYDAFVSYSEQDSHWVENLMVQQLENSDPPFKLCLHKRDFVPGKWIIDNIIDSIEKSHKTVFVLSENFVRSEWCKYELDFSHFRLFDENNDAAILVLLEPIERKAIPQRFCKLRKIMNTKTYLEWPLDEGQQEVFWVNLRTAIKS

Take SLLTEVETPIRNEWGSRSNGSSD [Peptide M2e]: the SEAP activity result on TLR2 is recorded as “no activity was measured”. In addition, the “M2e-specific antibody response (IgG)” value in the assay with M2e is given as “did not raise any significant level of epitope-specific IgG; also recorded: very low antibody response; also recorded: significant antibody titer”. In assay [1], this sequence returned a mortality of 100%.
